Data reported in patent publication US20110201113A1, “Ex Vivo Progenitor and Stem Cell Expansion and Differentiation for Use in the Treatment of Disease of the Nervous System” (priority 2010, published 2011).

Legend:
Human neural stem cells [1] = assay: Proliferation of neural stem cells treated with various bioactive molecules (alternating growth conditions, cell counting); type: cell-based; settings: second 8 weeks of 16; factor + 1% FBS alternating weekly with EGF, bFGF, LIF, no FBS
Protocol: hNSC's were alternately cultured in media containing a certain growth factor and serum (GF+FBS) or in the media containing EFL but lacking the presence of fetal bovine serum (EFL−FBS) as shown in FIG. 3. The media was changed on days 7 and 14 after plating the cells. This example utilized an initial incubation in EFL−FBS, followed by incubation in media including FBS. Experimental analysis of hNSCs was carried out on days 5, 10, 15, and 20, if not otherwise indicated.
Medium 2 (+GFs): DMEM/F12 (1:1), 2% B27 (Gibco), 1% Pen-Strep (PAA), 1% FBS (Gibco)+one of the combination of growth factors (CNTF, Jagged, SHH, TGFa, Wnt1, Wnt5A, or all)
7 different combinations of growth factors were used: 2.1. CNTF (20 ng/ml, Peprotech); 2.2. Jagged (20 ng/ml, Peprotech); 2.3. SHH (20 ng/ml, Peprotech); 2.4. TGFa (20 ng/ml, Peprotech); 2.5 Wnt1 (20 ng/ml, R&D); 2.6 Wnt5A (20 ng/ml, R&D); and 2.7 all above.
On days 5, 10, 15, and 20, if not otherwise indicated, neurospheres were dissociated using trypsin and single cells were counted using a hemocytometer. As a control, hNSCs were continuously grown in the absence of serum, but in the presence of growth factors EFL (control). The color code indicates the specific growth factor (GF) that was used in the GF+FBS mode. Abbreviations used: GF, growth factor; CNTF, ciliary neurotrophic factor; Jagged, SHH, sonic hedgehog; TGFα, transforming growth factor alpha; Wnt1, wingless-type MMTV integration site family, member 1; Wnt5A wingless-type MMTV integration site family, […]; or combined (CNTF, Jagged, SHH, TGFα, Wnt1, Wnt5A), E, EGF; F, bFGF; L, LIF.
Human neural stem cells are most routinely grown in medium supplemented with EGF and bFGF (and LIF). […] Cells were grown for 16 weeks and counted regularly every two weeks. […] Cells were counted 8 times. […] At the last time point analyzed, 5 times more cells were grown with control medium than under any other conditions.

Human neural stem cells [2] = assay: Differentiation of neural stem cells to neurons and astrocytes (bTubIII immunostaining on laminin); type: cell-based; settings: cells taken after 8 and 12 weeks in culture, 14 days on laminin without factors; 3 random fields counted
Protocol: Next, how the stimulation of signaling pathways affects the commitment of human neural stem cells to neuronal and glial lineages was examined. For differentiation, samples of cells grown in all 8 conditions were removed from proliferating cell populations (after 8 and 12 weeks in culture) and plated onto laminin coated coverslips. All additional factors were excluded from culture medium and cells were grown for 14 days. Next, cells were fixed and stained for neural and glial markers as described previously. Examples of immunocytochemistry analysis can be seen on FIG. 8. […] No cells were detected as positive for oligodendrocyte marker O4. After immunostaining, cells from 3 random fields were counted and their differentiation potential was estimated according to the number of bTubIII positive cells present in samples. Results can be seen on FIG. 9. […] Cells grown with Wnt5a had the least percentage of bTubIII positive cells (33%), all the other conditions gave 41 to 47% of bTubIII positive cells (in control 45%).

Molecule | support of cell growth (Human neural stem cells [1]) | percentage of bTubIII positive cells (Human neural stem cells [2])
Jagged-1: Jagged growth factor, 20 ng/ml, Peprotech | slightly more efficient than the others | –
TGFa: transforming growth factor alpha, 20 ng/ml, Peprotech | slightly more efficient than the others | –
Wnt1: wingless-type MMTV integration site family, member 1; growth factor, 20 ng/ml, R&D (protein, UniProt P04628 28-370, looked up) Proto-oncogene Wnt-1: ANSSGRWWGIVNVASSTNLLTDSKSLQLVLEPSLQLLSRKQRRLIRQNPGILHSVSGGLQSAVRECKWQFRNRRWNCPTAPGPHLFGKIVNRGCRETAFIFAITSAGVTHSVARSCSEGSIESCTCDYRRRGPGGPDWHWGGCSDNIDFGRLFGREFVDSGEKGRDLRFLMNLHNNEAGRTTVFSEMRQECKCHGMSGSCTVRTCWMRLPTLRAVGDVLRDRFDGASRVLYGNRGSNRASRAELLRLEPEDPAHKPPSPHDLVYFEKSPNFCTYSGRLGTAGTAGRACNSSSPALDGCELLCCGRGHRTRTQRVTERCNCTFHWCCHVSCRNCTHTRVLHECL | slightly more efficient than the others | –
Wnt5a: wingless-type MMTV integration site family, member 15a (as printed); growth factor, 20 ng/ml, R&D (protein, UniProt P41221 62-380, looked up) Protein Wnt-5a: IIGAQPLCSQLAGLSQGQKKLCHLYQDHMQYIGEGAKTGIKECQYQFRHRRWNCSTVDNTSVFGRVMQIGSRETAFTYAVSAAGVVNAMSRACREGELSTCGCSRAARPKDLPRDWLWGGCGDNIDYGYRFAKEFVDARERERIHAKGSYESARILMNLHNNEAGRRTVYNLADVACKCHGVSGSCSLKTCWLQLADFRKVGDALKEKYDSAAAMRLNSRGKLVQVNSRFNSPTTQDLVYIDPSPDYCVRNESTGSLGTQGRLCNKTSEGMDGCELMCCGRGYDQFKTVQTERCHCKFHWCCYVKCKKCTEIVDQFVCK | – | 33%
